According to ChEMBL document CHEMBL3046580, “Synthesis of Some 2-Aryloxymethyl-1, 3, 4-thiadiazolo[2, 3-b]-quinazolin-4-ones and 2-Aryloxymethyl-5-substituted-1, 3, 4-thiadiazolo[3, 2-a]-s-triazin-7-thiones as Potential Biocides” (1990):

How the values were obtained:
Format in all cases: functional
[1] = test system: Setaria viridis; test: Herbicidal activity against Setaria viridis (green foxtail) assessed as killing at 6 kg/ha by post-emergent activity assay
[2] = test system: Abutilon theophrasti; test: Herbicidal activity against Abutilon theophrasti (velvetleaf) assessed as killing at 6 kg/ha by post-emergent activity assay
[3] = test system: Echinochloa crus-galli; test: Herbicidal activity against Echinochloa crus-galli (barnyard grass) assessed as killing at 6 kg/ha by post-emergent activity assay
[4] = test system: Sorghum halepense; test: Herbicidal activity against Sorghum halepense (Johnson grass) assessed as killing at 6 kg/ha by post-emergent activity assay
[5] = test system: Triticum aestivum; test: Herbicidal activity against Triticum aestivum (wheat) assessed as killing at 6 kg/ha by post-emergent activity assay
[6] = test system: Bipolaris oryzae; test: Antifungal activity against Bipolaris oryzae assessed as fungus colony inhibition at 10 ppm measured after 96 hr by agar dilution method
[7] = test system: Bipolaris oryzae; test: Antifungal activity against Bipolaris oryzae assessed as fungus colony inhibition at 100 ppm measured after 96 hr by agar dilution method
[8] = test system: Bipolaris oryzae; test: Antifungal activity against Bipolaris oryzae assessed as fungus colony inhibition at 1000 ppm measured after 96 hr by agar dilution method
[9] = test system: Aspergillus niger; test: Antifungal activity against Aspergillus niger assessed as fungus colony inhibition at 10 ppm measured after 96 hr by agar dilution method
[10] = test system: Aspergillus niger; test: Antifungal activity against Aspergillus niger assessed as fungus colony inhibition at 100 ppm measured after 96 hr by agar dilution method
[11] = test system: Aspergillus niger; test: Antifungal activity against Aspergillus niger assessed as fungus colony inhibition at 1000 ppm measured after 96 hr by agar dilution method

SMILES	Activity [1]	Activity [2]	Activity [3]	Activity [4]	Activity [5]	inhibition at 10 ppm [6]	inhibition at 100 ppm [7]	inhibition at 1000 ppm [8]	inhibition at 10 ppm [9]	inhibition at 100 ppm [10]	inhibition at 1000 ppm [11]
O=c1c2ccccc2nc2sc(COc3ccccc3Cl)nn12	70%	20%	20%	40%	60%	30.8%	40.1%	61.4%	19.2%	30.2%	51.3%
S=c1nc(COc2ccc(Cl)cc2Cl)n2nc(COc3ccc(Cl)cc3Cl)sc2n1	100%	100%	100%	100%	20%	61.4%	78.6%	90.4%	64.5%	74.4%	88.6%
S=c1nc(COc2ccc(Cl)cc2Cl)n2nc(COc3ccc(Cl)cc3)sc2n1	20%	30%	30%	40%	50%	60.6%	75.4%	88.2%	68.4%	74.2%	87.2%
Cc1ccc(OCc2nn3c(-c4ccc(Cl)cc4)nc(=S)nc3s2)c(C)c1	90%	90%	90%	80%	0%	31.2%	49.1%	60%	20.4%	31.4%	52.3%
Cc1ccc(OCc2nn3c(C)nc(=S)nc3s2)c(C)c1	10%	20%	40%	60%	50%	27.4%	39.3%	59.5%	18.6%	30%	51.4%
O=C(COc1ccc(Cl)cc1Cl)NC(=S)Nc1nnc(COc2ccc(Cl)cc2)s1						24.2%	36.2%	57.2%	13%	25.4%	47%
O=C(COc1ccc(Cl)cc1Cl)NC(=S)Nc1nnc(COc2ccc(Cl)cc2Cl)s1						21.9%	32%	54%	12.4%	25.2%	46.4%
Cc1ccc(OCc2nnc(NC(=S)NC(=O)c3ccc(Cl)cc3)s2)c(C)c1						22.8%	32.4%	55.2%	18.4%	29%	50.3%
CC(=O)NC(=S)Nc1nnc(COc2ccc(C)cc2C)s1						20.2%	38.4%	60.2%	20.5%	31.4%	55.2%
O=c1c2ccccc2nc2sc(COc3ccc(Cl)cc3Cl)nn12	30%	20%	80%	60%	50%	23.4%	31.8%	54.4%	12.6%	25%	43.1%
Cc1ccc(OCc2nn3c(=O)c4ccccc4nc3s2)cc1	40%	10%	10%	50%	40%	25.2%	35%	56.2%	13.7%	25.4%	46%
Cc1ccc(OCc2nn3c(=O)c4ccccc4nc3s2)cc1C	50%	50%	50%	60%	40%	21.3%	38.6%	50.2%	12.8%	24.4%	42.2%
O=C(O)c1ccccc1Nc1nnc(COc2ccccc2Cl)s1						22.2%	30.4%	52.4%	14%	25.8%	47.3%
Cc1ccc(OCc2nnc(Nc3ccccc3C(=O)O)s2)cc1						22.2%	39.1%	59.1%	20.9%	31%	52.2%
O=C(O)c1ccccc1Nc1nnc(COc2ccc(Cl)cc2Cl)s1						60.8%	75.3%	87.4%	68.5%	73%	84.8%
Cc1ccc(OCc2nnc(Nc3ccccc3C(=O)O)s2)cc1C						25.2%	30.4%	57.4%	19%	29.1%	50.2%
COC(=O)Nc1nc2ccccc2[nH]1 [CARBENDAZIM]						78.3%	85.2%	98%	78.6%	84.4%	98.8%
